Entries after “also recorded” stand apart in the source; their conditions may differ.
Assays:
IGF1R = biological target: T1, IGF1R (Homo sapiens, UniProt P08069); assay: Radiometric protein kinase assay (33PanQinase Activity Assay); type: biochemical; details: purified IGF1R kinase, nonlinear regression
T1 construct: purchased ProQinase GmbH (Freiburg, Germany)
Experimental: The kinase inhibition assay was performed by ProQinase GmbH (Freiburg, Germany). Shikonin was provided as 1.85 × 10^−3 M stock solution in DMSO. In the process, shikonin was serially diluted in semi-log steps with 100% DMSO in a 96-well microtiter plate. Directly before use, shikonin was further diluted 1 : 10 with water. Shikonin was tested at 10 final assay concentrations in the range from 1.85 × 10^−5 M to 5.55 × 10^−10 M. The final DMSO concentration in the reaction cocktails was 1% in all cases. A radiometric protein kinase assay (^33PanQinase Activity Assay) was used for measuring the kinase activity of IGF1R. All kinase assays were performed in 96-well FlashPlates from Perkin Elmer (Boston, MA, USA) in a 50 μL reaction volume. […] Incorporation of ^33Pi (counting of “cpm”) was determined with a Wallac MicroBeta scintillation counter (Perkin Elmer). […] Kinase activity was evaluated based on a comparison with experiments containing the complete reaction cocktail but no shikonin. A complete reaction cocktail without kinase served as control for unspecific binding of radioactivity to the plate in the absence of protein kinase but in the presence of shikonin. IC50 values were calculated by nonlinear regression using Prism 5.04 (Graphpad, CA, USA).

EGFR = system: EGFR; set-up: method as in PMID 14568164; details: previous studies ref 24; cited from earlier work
p-Akt = assay: FlowCellect PI3K-mTOR signaling cascade assay (flow cytometry), p-Akt; type: cell-based; details: 24 h
Text: The FlowCellect PI3K-mTOR signaling cascade assay kit (Merck Millipore, Germany) was used to analyze the effect of shikonin on the PI3K-mTOR signaling pathway. The assay is based on two directly conjugated phospho-specific signaling antibodies against phosphorylated Akt and phosphorylated ribosomal S6 protein, which are both important signaling nodes of the mTOR cascade. The phosphorylation of Akt is indicative of the upstream PI3K signaling, marking the cells initiation into proliferation or cell survival. Phosphorylated-ribosomal S6 protein is indicative of downstream mTOR and p70S6K signaling leading to protein translation. The assay was performed according to the manufacture's protocol. Briefly, 1.5 × 10^6 U937 cells were treated with 0.3 μM shikonin or DMSO solvent control and incubated for 24 h. Subsequently, cells were fixed on ice for 20 min using the supplied fixation buffer. After fixation, cells were washed twice and treated with permeabilization buffer on ice for 20 min. After two further washing steps, cells were resuspended in a final volume of 90 μL assay buffer and incubated with 5 μL 20x anti-phospho-ribosomal protein S6 (Ser235) PerCP conjugated monoclonal antibody and 5 μL 20x anti-phospho-Akt1/PKBα (Ser473) Alexa Fluor 488 conjugated monoclonal antibody in the dark on ice for one hour. After antibody incubation, cells were centrifuged and resuspended in 500 μL assay buffer. Subsequently, cells were measured in a LSR-Fortessa FACS analyzer (Becton-Dickinson, Germany) and shikonin fluorescence was compensated for the respective channels. For each sample, 1 × 10^4 cells were counted. The PerCP signal was measured with 488 nm excitation and detected using a 670/30 nm bandpass filter. The Alexa Fluor 488 signal was analyzed with 488 nm excitation and detected using a 530/30 nm bandpass filter. All parameters were plotted on a logarithmic scale. Cytographs were analyzed using FlowJo software (Celeza, Switzerland). All experiments were performed at least in triplicate. Student's t-test was used for statistical analysis.

U937 cells = assay: mRNA microarray; type: cell-based, human; details: shikonin at IC50 concentration, 24 h vs DMSO
Experimental: Total RNA from U937 cells after 24 h of treatment with shikonin at IC50 concentration or DMSO solvent control was isolated using RNeasy Kit from Qiagen (Hilden, Germany) according to the manufacture's instruction. The quality of total RNA was checked by gel analysis using the total RNA Nano chip assay on an Agilent 2100 Bioanalyzer (Agilent Technologies GmbH, Berlin, Germany). Only samples with RNA index values greater than 9.3 were selected for expression profiling. Microarray experiments were performed in duplicates for treated and untreated samples. Biotin-labeled cRNA samples for hybridization on Illumina Human Sentrix-HT12 Bead Chip arrays (Illumina, Inc.) were prepared according to Illumina's recommended sample labeling procedure based on the modified Eberwine protocol. Biotin-16-UTP was purchased from Roche Applied Science (Penzberg, Germany). The cRNA was column purified with TotalPrep RNA Amplification Kit and eluted in 60 μL of water. Quality of cRNA was controlled using the RNA Nano Chip Assay on an Agilent 2100 Bioanalyzer and spectrophotometrically quantified (NanoDrop). Hybridization was also performed according the manufacturer's recommendations. Microarray scanning was done using a Beadstation array scanner, setting adjusted to a scaling factor of 1 and PMT settings at 430. Data was extracted for each bead individually, and outliers were removed when the MAD (median absolute deviation) was greater than 2.5. Data analysis was performed by using the quantile normalization algorithm without background subtraction, and differentially regulated genes were defined by calculating the standard deviation differences of a given probe in a one-by-one comparison of samples or groups. The expression data obtained was filtered with Chipster data analysis platform. These steps include filtering of genes by two times standard deviation of deregulated genes and a subsequent assessment of significance using empirical Bayes t-test (P < 0.05).

[1] = cytograph p-Akt / p-ribosomal protein S6, U937 cells, 0.3 μM

T1 sequence (P08069 31-1367): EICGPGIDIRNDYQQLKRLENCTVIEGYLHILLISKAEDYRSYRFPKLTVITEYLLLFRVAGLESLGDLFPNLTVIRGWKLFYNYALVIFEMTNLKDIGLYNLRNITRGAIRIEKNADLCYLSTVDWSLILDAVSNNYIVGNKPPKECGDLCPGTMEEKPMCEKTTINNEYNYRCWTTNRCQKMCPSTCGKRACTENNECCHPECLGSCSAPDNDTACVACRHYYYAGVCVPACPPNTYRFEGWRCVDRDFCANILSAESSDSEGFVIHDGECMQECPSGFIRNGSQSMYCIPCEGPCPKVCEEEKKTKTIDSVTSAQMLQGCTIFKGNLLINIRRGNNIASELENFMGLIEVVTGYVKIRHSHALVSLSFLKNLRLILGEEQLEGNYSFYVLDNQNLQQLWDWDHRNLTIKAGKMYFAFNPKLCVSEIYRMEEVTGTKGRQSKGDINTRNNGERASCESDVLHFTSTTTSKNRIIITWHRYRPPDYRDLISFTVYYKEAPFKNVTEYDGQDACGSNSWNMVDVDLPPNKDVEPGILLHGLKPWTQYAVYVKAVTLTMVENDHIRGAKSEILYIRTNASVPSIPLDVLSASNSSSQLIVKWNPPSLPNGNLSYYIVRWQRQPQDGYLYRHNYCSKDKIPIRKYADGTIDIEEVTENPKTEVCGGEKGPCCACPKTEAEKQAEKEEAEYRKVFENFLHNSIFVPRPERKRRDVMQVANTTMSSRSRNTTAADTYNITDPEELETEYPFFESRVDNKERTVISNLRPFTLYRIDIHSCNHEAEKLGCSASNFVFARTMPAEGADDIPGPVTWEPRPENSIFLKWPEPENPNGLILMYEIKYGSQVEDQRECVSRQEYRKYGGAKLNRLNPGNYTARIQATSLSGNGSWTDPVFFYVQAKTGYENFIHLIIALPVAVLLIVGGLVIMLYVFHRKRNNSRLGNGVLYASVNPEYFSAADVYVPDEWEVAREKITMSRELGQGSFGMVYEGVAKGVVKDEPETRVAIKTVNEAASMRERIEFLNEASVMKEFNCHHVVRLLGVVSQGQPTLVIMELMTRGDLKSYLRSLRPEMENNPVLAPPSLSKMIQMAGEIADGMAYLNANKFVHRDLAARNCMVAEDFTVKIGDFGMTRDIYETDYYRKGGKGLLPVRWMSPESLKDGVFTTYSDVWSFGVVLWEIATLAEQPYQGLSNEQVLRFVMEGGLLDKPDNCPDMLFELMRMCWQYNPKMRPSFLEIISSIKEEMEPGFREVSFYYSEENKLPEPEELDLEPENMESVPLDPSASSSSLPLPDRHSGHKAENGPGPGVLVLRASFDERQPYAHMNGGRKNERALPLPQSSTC

Q: For CC(C)=CC[C@@H](O)C1=CC(=O)c2c(O)ccc(O)c2C1=O [shikonin], which IC50 (IGF1R) is on record?
A: Its IC50 is 2600 nM.

Q: What about the EGFR phosphorylation (EGFR) of the same compound?
A: Its EGFR phosphorylation is “inhibits EGFR phosphorylation”.

Q: What about the “Phosphorylation of Akt” value (p-Akt; U937 cells, 0.3 μM shikonin) of the same compound?
A: Its value is “significantly inhibits; also recorded: significantly decreased”.

Q: What about the “Cells in quadrant Q1” value (p-Akt; [1]) of the same compound?
A: Its value is 27.2%.

Q: What about the “Cells in quadrant Q2” value (p-Akt; [1]) of the same compound?
A: Its value is 61.4%.

Q: What about the “Cells in quadrant Q3” value (p-Akt; [1]) of the same compound?
A: Its value is 1.10%.

Q: And the “Cells in quadrant Q4” value (p-Akt; [1])?
A: Its value is 10.3%.

Q: What about the “FC mRNA ACTB (Actin, cytoplasmic 1)” value (U937 cells) of the same compound?
A: The value was −6.8.

Q: And the “FC mRNA ACTG1 (Actin, cytoplasmic 2)” value (U937 cells)?
A: The value was −11.9.

Q: What about the “FC mRNA ALDOA (Fructose-bisphosphate aldolase A)” value (U937 cells) of the same compound?
A: The value was −17.6.

Q: What about the “FC mRNA ANXA1 (Annexin A1)” value (U937 cells) of the same compound?
A: Its value is “+4.1”.

Q: And the “FC mRNA ARPC1B (Actin-related protein 2/3 complex subunit 1B)” value (U937 cells)?
A: The value was −7.8.

Q: And the “FC mRNA CCL2 (C-C motif chemokine 2)” value (U937 cells)?
A: The value was “+4.2”.

Q: What about the “FC mRNA CCT7 (T-complex protein 1 subunit eta)” value (U937 cells) of the same compound?
A: The value was −7.8.

Q: What about the “FC mRNA ERP29 (Endoplasmic reticulum resident protein 29)” value (U937 cells) of the same compound?
A: The value was −6.0.

Q: What about the “FC mRNA HMOX1 (Heme oxygenase 1)” value (U937 cells) of the same compound?
A: Its value is “+4.1”.

Q: And the “FC mRNA HSPD1 (60 kDa heat shock protein, mitochondrial)” value (U937 cells)?
A: Its value is −6.6.

Q: What about the “FC mRNA JUN (Transcription factor AP-1)” value (U937 cells) of the same compound?
A: The value was “+3.2”.

Q: And the “FC mRNA LY96 (Lymphocyte antigen 96)” value (U937 cells)?
A: The value was “+4.5”.

Q: What about the “FC mRNA MAFB (Transcription factor MafB)” value (U937 cells) of the same compound?
A: Its value is “+3.5”.

Q: What about the “FC mRNA MLLT11 (Protein AF1q)” value (U937 cells) of the same compound?
A: The value was “+6.2”.

Q: And the “FC mRNA NCF1 (Neutrophil cytosol factor 1)” value (U937 cells)?
A: The value was −5.9.

Q: What about the “FC mRNA PSMC4 (26S protease regulatory subunit 6B)” value (U937 cells) of the same compound?
A: Its value is −7.7.

Q: What about the “FC mRNA S100A8 (Protein S100-A8)” value (U937 cells) of the same compound?
A: Its value is “+4.7”.

Q: What about the “FC mRNA S100A9 (Protein S100-A9)” value (U937 cells) of the same compound?
A: The value was “+4.2”.

Q: And the “FC mRNA SLC39A3 (Zinc transporter ZIP3)” value (U937 cells)?
A: The value was −6.2.

Q: And the “FC mRNA VIM (Vimentin)” value (U937 cells)?
A: Its value is “+4.2”.

From PMC3703888, “Integration of Different “-omics” Technologies Identifies Inhibition of the IGF1R-Akt-mTOR Signaling Cascade Involved in the Cytotoxic Effect of Shikonin against Leukemia Cells” (Evidence-based Complementary and Alternative Medicine : eCAM, 2013)
